{"source": "patent US12110289B2", "about": "“Heterocyclic compounds, preparation methods and uses thereof” (InventisBio Co., Ltd., priority 2020, dated 2024)", "key": {"[1]": {"tested_on": "NCI-H358 xenograft", "test": "NSCLC H358 xenograft model, tumor volume", "type": "in vivo, BALB/c nude mice", "settings": "for reduction of tumor volume, combined treatment vs either agent alone: FIG. 5", "description": "(§1) All the procedures related to animal handling, care and the treatment in this study were performed according to the guidelines approved by the Institutional Animal Care and Use Committee (IACUC) of SIPPER B&K following the guidance of the Association for Assessment and Accreditation of Laboratory Animal Care (AAALAC). At the time of routine monitoring, the animals were checked for any effects of tumor growth on normal behavior such as mobility, food and water consumption (by looking only), body weight gain/loss (body weights were measured twice weekly), eye/hair matting and any other abnormal effect. Death and observed clinical signs were recorded on the basis of the numbers of animals within each subset.\n(§2) The NCI-H358, SW837, NCI-H2122 tumor cells were purchased from the American Type Culture Collection (ATCC). Cells were maintained in vitro as monolayer cultured in RPMI-1640 or DMEM medium supplemented with 10% fetal bovine serum, 50 IU/ml penicillin/streptomycin (GIBCO) at 37° C. in an atmosphere of 5% CO2 in air. The tumor cells were routinely sub cultured twice weekly by trypsin-EDTA treatment. The cells growing in an exponential growth phase were harvested and counted for tumor inoculation.\n(§3) For tumor bearing models, female 6- to 8-week-old athymic BALB/c nude mice were used for human cancer cell lines. Each mouse was inoculated subcutaneously at the right flank with tumor cells (10×10^6) in 0.1 ml of PBS. The treatments were started when the average tumor size reached approximately 200-250 mm^3. Carboplatin, Cisplatin was injected twice a week by i.p. Vehicles and other test articles were given orally as a suspension by gavage once daily during the study or treatment period.\n(§4) Tumor volume was calculated by measuring two perpendicular diameters using the following formula: (L×W 2)/2 in which L and W refer to the length and width tumor diameter, respectively. Results are expressed as mean and standard deviation of the mean."}, "[2]": {"tested_on": "SW837 xenograft", "test": "Colorectal adenocarcinoma SW837 xenograft model, tumor volume", "type": "in vivo, BALB/c nude mice", "settings": "30 mg/kg oral once daily vs AMG510 at 60 mg/kg; FIG. 1", "description": "as §1, §2, §3, §4"}, "[3]": {"test": "Human hepatocyte clearance study", "type": "in vitro ADME", "settings": "human, pooled cryopreserved human hepatocytes (suspension), working cell density 2 × 10^6 viable cells/mL", "description": "(§5) The in vitro human hepatocyte clearance of compounds described here was studied using pooled human hepatocytes purchased from BioreclamationIVT (Westbury, NY, Cat #X008001, Lot #TQJ). The assay was conducted according to manufacturer's instruction. Briefly, 10 mM stock solutions of test compounds and positive control (Verapamil) were prepared in 100% DMSO. Thawing media (50 mL) used in the study consists of 31 mL Williams E medium (GIBCO Cat #12551-032), 15 mL isotonic percoll (GE Healthcare Cat #17-0891-09), 500 uL 100× GlutaMax (GIBCO Cat #35050), 750 uL HEPES (GIBCO Cat #15630-080), 2.5 mL FBS (Corning Cat #35-076-CVR), 50 uL human insulin (GIBCO Cat #12585-014) and 5 uL dexamethasone (NICPBP). Incubation media is made of Williams E medium supplemented with 1× GlutaMax. Both thawing medium and incubation medium (serum-free) were placed in a 37° C. water bath for at least 15 minutes prior to use. Compound stock solutions were diluted to 100 μM by combining 198 μL of 50% acetonitrile/50% water and 2 μL of 10 mM stock solution. Verapamil was use as positive control in the assay. Vials of cryopreserved hepatocytes were removed from storage and thawed in a 37° C. water bath with gentle shaking. Contents of the vial were poured into the 50 mL thawing medium conical tube. Vials were centrifuged at 100 g for 10 minutes at room temperature. […] […] […] The boiled hepatocytes were used to prepare negative samples. Aliquots of 198 μL hepatocytes were dispensed into each well of a 96-well non-coated plate. The plate was placed in the incubator on an orbital shaker at 500 rpm for approximately 10 minutes. Aliquots of 2 μL of the 100 μM test compound or positive control were added into respective wells of the non-coated 96-well plate to start the reaction. This assay was performed in duplicate. The plate was incubated in the incubator on an orbital shaker at 500 rpm for the designated time points. Twenty-five microliter of contents were transferred and mixed with 6 volumes (150 μL) of cold acetonitrile with IS (200 nM imipramine, 200 nM labetalol and 200 nM diclofenac) to terminate the reaction at time points of 0, 15, 30, 60, 90 and 120 minutes. Samples were centrifuged at 3,220 g for 25 minutes and aliquots of 150 μL of the supernatants were used for LC-MS/MS analysis. For data analysis, all calculations were carried out using Microsoft Excel. Peak areas were determined from extracted ion chromatograms. The in vitro half-life (t1/2) of parent compound was determined by regression analysis of the percent parent disappearance vs. time curve. […] Scaling factors for in vivo intrinsic clearance prediction using human hepatocytes are listed as: liver weight (g liver/kg body weight): 25.7; hepatocyte concentration (10^6 cells/g liver): 99; scaling factor: 2544.3."}, "[4]": {"tested_on": "pooled human hepatocytes", "test": "Human hepatocyte clearance study", "type": "in vitro ADME", "description": "as §5"}}, "data": [{"smiles": "C=CC(=O)N1C[C@H](C)N(c2nc(=O)n(-c3c(C4CC4)ncnc3C3CC3)c3nc(-c4c(N)cccc4F)c(Cl)cc23)C[C@H]1C", "note": "[Compound 126]", "values": [{"measurement": "reducing tumor volume compared with AMG510", "setting": "[1]; 30 mg/kg oral once daily vs AMG510 at 30 mg/kg, FIG. 2", "value": "more effective than AMG510"}, {"measurement": "reduction of tumor volume, combined treatment vs either agent alone", "setting": "[1]; Compound 126 at 5 mg/kg combined with RMC-4550 at 10 mg/kg", "value": "much better reduction of tumor volume"}, {"measurement": "reduction of tumor volume, combined treatment vs either agent alone", "setting": "[1]; Compound 126 at 5 mg/kg combined with cisplatin at 2 mg/kg", "value": "much better reduction of tumor volume"}, {"measurement": "reducing tumor volume compared with AMG510", "setting": "[2]", "value": "more effective than AMG510"}, {"measurement": "hepatocyte CLint at 1 µM", "setting": "[3]; read-out: Human In vitro Clint (μl/min/10^6 cells)", "value": 6.6, "unit": "µL/min/1e6 cells"}, {"measurement": "half-life at 1 µM", "setting": "[3]; read-out: Human In vitro T1/2", "value": 1.73, "unit": "h"}, {"measurement": "CLint scaled at 1 µM", "setting": "[3]; read-out: Human Scale-up Clint", "value": 17, "unit": "mL/min/kg"}, {"measurement": "human hepatocyte clearance profile compared to control compounds", "setting": "[4]", "value": "better human hepatocyte clearance profile"}, {"measurement": "Human Hepatocyte Remaining Percentage @ 120 min (%)", "setting": "[4]; working cell density 2 × 10^6 viable cells/mL", "value": 47.8, "unit": "%"}]}]}
